Test results as given in US5811456A, “Monoamine oxidase B inhibitors, processes for their preparation and use thereof” (priority 1994, dated 1998).
Like-named read-outs stand apart in the source and are kept apart here.

Legend:
[1] = biological target: T1, rat brain MAO B (Rattus norvegicus, UniProt P19643); assay: Inhibitory activity toward rat brain MAO B in vitro (14C-beta-phenylethylamine substrate); format: biochemical
T1 construct: makes it possible to obtain a pellet enriched in mitochondria; from tissue; host or cells: Wistar rat brain without cerebellum, mitochondria-enriched pellet
T1 sequence (P19643 1-520): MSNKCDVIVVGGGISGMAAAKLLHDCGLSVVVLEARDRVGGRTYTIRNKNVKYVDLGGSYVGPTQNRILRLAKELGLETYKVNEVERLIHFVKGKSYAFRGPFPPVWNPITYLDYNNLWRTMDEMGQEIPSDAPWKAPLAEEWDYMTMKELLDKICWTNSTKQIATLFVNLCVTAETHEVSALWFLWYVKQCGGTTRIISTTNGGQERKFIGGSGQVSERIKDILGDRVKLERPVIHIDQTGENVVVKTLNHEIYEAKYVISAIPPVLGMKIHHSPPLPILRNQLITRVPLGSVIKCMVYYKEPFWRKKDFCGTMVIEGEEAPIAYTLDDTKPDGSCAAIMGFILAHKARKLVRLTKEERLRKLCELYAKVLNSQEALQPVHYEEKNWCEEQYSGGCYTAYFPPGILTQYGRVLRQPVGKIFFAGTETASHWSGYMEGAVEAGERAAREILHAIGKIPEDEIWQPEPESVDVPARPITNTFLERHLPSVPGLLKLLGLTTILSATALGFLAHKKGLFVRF

[2] = background; cited from earlier work
[3] = Cytotoxicity test on the cells in suspension (Trypan blue); format: cell-based; details: human, daudi cells; for CC50 at 24 h: read-out: LD50 (concentration for which 50% of the cells are killed); for MNTC at 24 h: read-out: MC100 (maximum concentration for which all the cells are alive)
[4] = biological target: T2, monoamine oxidase B (Rattus norvegicus, UniProt P19643); assay: Reversibility of the inhibitory activity toward MAO B (residual activity before and after washing); format: biochemical; details: mean of 4 assays
T2 construct: from tissue; host or cells: rat brain mitochondria (inferred from section 21.1; not restated in section 21.2)
T2 sequence (P19643 1-520): T1 sequence (P19643 1-520)

[5] = MTT cytotoxicity test on adherent cells; format: cell-based; details: human, hela ohio cells; for CC50 at 24 h: read-out: LD50 (concentration for which 50% of the cells are killed); for MNTC at 24 h: read-out: MC100 (maximum concentration for which all the cells are alive)
[6] = system: MAO A; details: background; cited from earlier work
[7] = biological target: T3, rat brain MAO A (Rattus norvegicus, UniProt P21396); assay: Inhibitory activity toward rat brain MAO A in vitro (14C-serotonin substrate); format: biochemical
T3 construct: makes it possible to obtain a pellet enriched in mitochondria; from tissue; host or cells: Wistar rat brain without cerebellum, mitochondria-enriched pellet
T3 sequence (P21396 1-526): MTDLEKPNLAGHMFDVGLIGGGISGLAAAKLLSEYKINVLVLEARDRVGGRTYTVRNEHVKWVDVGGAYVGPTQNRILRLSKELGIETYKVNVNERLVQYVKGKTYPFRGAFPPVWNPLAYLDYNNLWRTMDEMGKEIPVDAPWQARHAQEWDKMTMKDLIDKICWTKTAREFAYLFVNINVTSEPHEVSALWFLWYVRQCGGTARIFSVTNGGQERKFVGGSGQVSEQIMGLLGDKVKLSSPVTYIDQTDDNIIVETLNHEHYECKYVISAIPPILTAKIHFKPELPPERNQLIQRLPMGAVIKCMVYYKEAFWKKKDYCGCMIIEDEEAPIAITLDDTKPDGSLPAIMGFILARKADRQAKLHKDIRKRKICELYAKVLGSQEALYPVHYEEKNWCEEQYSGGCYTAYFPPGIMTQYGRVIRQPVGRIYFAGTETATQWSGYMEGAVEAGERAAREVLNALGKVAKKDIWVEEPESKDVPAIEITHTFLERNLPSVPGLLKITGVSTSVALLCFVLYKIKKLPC

[8] = ap: after preincubation (30 minutes, 37° C.), read-out: IC50 MAO B
[9] = wp: without preincubation, read-out: IC50 MAO B
[10] = ap: after preincubation (30 minutes, 37° C.)

Row | SMILES | IC50 [1, 8] | IC50 [1, 9] | CC50 at 24 h [3] | MNTC at 24 h [3] | MNTC at 24 h [5] | further results
1 | C#CCN(N=Cc1ccc(OCc2ccccc2)cc1)C(C)=O [I-a10, 4-(Benzyloxy)benzaldehyde acetylpropargylhydrazone] | 0.36 µM | 4.1 µM | – | – | – | –
2 | C#CCN(C)C(C)Cc1ccccc1 (stereo not shown) [Deprenyl] | – | – | – | – | – | antidepressant effects (in words) [2]: lack antidepressant effects
3 | CC(=O)N(CCC#N)N=Cc1ccc(OCc2ccc(C)cc2)cc1 [I-a2.1] | 0.69 µM | 43 µM | – | – | – | –
4 | CNC(=O)N(CCC#N)N=Cc1ccccc1 [I-c1, Benzaldehyde (2-cyanoethyl)(N-methylcarbamoyl)hydrazone] | 120 µM | 280 µM | – | – | – | –
5 | CC(=O)N(CCC#N)N=Cc1ccc(OCc2ccccc2)cc1 [I-a2, 4-(Benzyloxy)benzaldehyde acetyl(2-cyanoethyl)hydrazone] | 0.003 µM | 0.035 µM | 100 µM | 10 µM | 10000 nM | Percentage of residual MAO activity ([4]; after washing, 30 min): 105%; Percentage of residual MAO activity ([4]; before washing, 30 min incubation at 37° C.): 14%; CC50 at 24 h [5]: 100 µM
6 | CCOC(=O)N(CCC#N)N=Cc1ccc(OCc2ccccc2)cc1 [I-b2, 4-(Benzylozy)benzaldehyde (2-cyanoethyl)(ethoxycarbonyl)hydrazone] | 6.3 µM | 22 µM | – | – | – | –
7 | C#CCN(C)CCCOc1ccc(Cl)cc1Cl [clorgyline] | – | – | – | – | – | inhibition of MAO A (in words) [6]: inhibit MAO A
8 | CC(=O)N(CCC#N)N=Cc1ccc(OCc2ccc(Cl)cc2Cl)cc1 [I-a2.5, 4-[(2,4-Dichlorobenzyl)oxy]benzaldehyde acetyl(2-cyanoethyl)hydrazone] | – | – | – | – | – | IC50 [1]: 0.38 µM; IC50 MAO B ([1]; wp: without preincubation): precipitate
9 | CC(=O)N(CCC#N)N=Cc1ccc(OCc2ccc([N+](=O)[O-])cc2)cc1 [I-a2.2] | 1.4 µM | 3 µM | 22 µM | 10 µM | 650 nM | CC50 at 24 h [5]: 30 µM
10 | CCOC(=O)N(CCO)N=Cc1ccc(OCc2ccccc2)cc1 [I-b4, 4-(Benzyloxy)benzaldehyde (2-hydroxyethyl)(ethoxycarbonyl)hydrazone] | 10 µM | 35 µM | – | – | – | –
11 | CC(=O)N(CCC#N)N=Cc1ccc(OCc2ccc(Cl)cc2)cc1 [I-a2.3] | 0.245 µM | 11.3 µM | 50 µM | 10 µM | 600 nM | –
12 | CC(=O)N(CCC#N)N=Cc1ccc(OCCc2ccccc2)cc1 [I-a6, 4-(2-Phenylethozy)benzaldehyde acetyl(2-cyanoethyl)hydrazone] | 0.015 µM | 3 µM | – | – | – | IC50 [7, 10]: 6.8 µM; IC50 ([7]; wp: without preincubation): 53 µM
13 | C#CCN(C)Cc1ccccc1 [pargyline] | – | – | – | – | – | antidepressant effects (in words) [2]: lack antidepressant effects; inhibition of MAO A (in words) [6]: inhibit MAO A
14 | COc1ccc(COc2ccc(C=NN(CCC#N)C(C)=O)cc2)cc1 [I-a2.4] | 2.15 µM | 28 µM | 65 µM | 12.5 µM | 2300 nM | CC50 at 24 h [5]: 40 µM
15 | CC(=O)N(CCO)N=Cc1ccc(OCc2ccccc2)cc1 [I-a4, 4-(Benzyloxy)benzaldehyde acetyl(2-hydroxyethyl)hydrazone] | 0.0063 µM | 0.028 µM | 100 µM | 10 µM | 10000 nM | IC50 [7, 10]: 50 µM; IC50 ([7]; wp: without preincubation): 50 µM; CC50 at 24 h [5]: 100 µM
16 | CNC(=O)N(CCC#N)N=Cc1ccc(OCc2ccccc2)cc1 [I-c2, 4-(benzyloxy)benzaldehyde (2-cyanoethyl)(N-methylcarbamoyl)hydrazone] | 2.5 µM | 1.8 µM | – | – | – | –
